# In US9238821B2, “Metabolic engineering for plant disease resistance” (The Samuel Roberts Noble Foundation, Inc., priority 2009, dated 2016):
# “And” between values parts separate entries of the source, which are not always exact repeats. Equal entries are not always repeated. “Also recorded” adds a separate entry of the source.
# System: P. omnivora
# Assay: Fungal inhibition assay against P. omnivora on PDA medium
# Format: cell-based, Phymatotrichopsis omnivora
# Details: for in vitro growth inhibitory activity against P. omnivora (in words): PDA medium, 0.1 mM and 0.5 mM; for Fungal growth score (arbitrary scale 0 to 5): 120 h, 0 = no fungal growth (best inhibition), 5 = best fungal growth (no inhibition), two replicate columns
Molecule,in vitro growth inhibitory activity against P. omnivora (in words),Fungal growth score (arbitrary scale 0 to 5) (compound 0.1 mM in PDA medium),Fungal growth score (arbitrary scale 0 to 5) (compound 0.5 mM in PDA medium),"in vitro growth inhibitory activity against P. omnivora (in words) (listed as 7, 4′-dihydroxyflavone)"
"O=c1cc(-c2ccc(O)cc2)oc2cc(O)c(O)cc12 [6,7,4′-trihydoxyflavone]",not active,–,–,–
"O=c1cc(-c2ccc(O)cc2)oc2cc(O)ccc12 [7,4′-dihydroxyflavone]",strongly inhibited; also recorded: inhibited; also recorded: substantial in vitro growth inhibitory activity; also recorded: inhibit growth,3,0,substantial in vitro growth inhibitory activity
O=c1cc(-c2ccc(O)cc2)oc2cc(O)cc(O)c12 [apigenin],not in vitro active,5,5,–
"Oc1ccccc1O [catechol, reference compound]",–,2,0,–
"COc1ccc(-c2coc3cc(O)ccc3c2=O)cc1 [formononetin, reference compound]",not active,4,4,–
O=C(/C=C/c1ccc(O)cc1)c1ccc(O)cc1O [isoliquiritigenin],–,4,4,–
O=C1C[C@@H](c2ccc(O)cc2)Oc2cc(O)ccc21 [liquiritigenin],no inhibition activity,5,5,–
O=C1C[C@@H](c2ccc(O)cc2)Oc2cc(O)cc(O)c21 [naringenin],no inhibition activity,4 and 5,3 and 5,–
medicarpin,strong inhibition; also recorded: inhibited; also recorded: substantial in vitro growth inhibitory activity; also recorded: inhibit growth,2 and 1,1 and 0,–
